# From patent US7151105B2, “Inhibitors of Hepatitis C virus RNA-dependent RNA polymerase, and compositions and treatments using the same” (Agouron Pharmaceuticals, Inc., priority 2004, dated 2006)
# Target: T1, Recombinant HCV polymerase (Hepatitis C virus genotype 1b, UniProt P26663)
# T1 construct: Recombinant HCV polymerase was tested for its ability to perform primer/template-directed transcription
# Test: biochemical
# Details: inhibition of polymerase-directed transcription; 30 min at 30° C; 30 nM enzyme; cpm data in triplicate
# Protocol: The compounds described herein were tested for activity with HCV polymerase. Recombinant HCV polymerase was tested for its ability to perform primer/template-directed transcription in assays that contained 30 mM tris-HCl pH 7.2, 10 mM MgCl2, 20 mM NaCl, 1 mM Dithiothreitol (DTT), 0.05% Tween-20, 1% glycerol, 5 pmoles biotin-dG12 (primer), 0.5 pmoles poly(rC)300 (template), 1 μM GTP, 0.1–0.3 uCi α-^32P-GTP, and 2.5 pmoles (0.15 μg) HCV polymerase protein in a final volume of 75 μL. Reactions were initiated by addition of enzyme and incubated 30 minutes at 30° C. Reactions were stopped by addition of 33 mM EDTA, and polynucleotide products were collected by filtration through Diethylaminoethyl (DE) Filtermat papers (Wallac). Unincorporated triphosphate was removed by washing the filters with 5% dibasic sodium phosphate. The filters were counted in a Packard Tri-Lux Microbeta scintillation counter (Packard Bioscience, Meriden, Conn.). Compounds to be tested were added at various concentrations, e.g., 1 μm to 50 μm, from stocks in 10% DMSO-water (final DMSO is 1% in reaction).
# IC50 values were estimated from the primary cpm data (collected in triplicate) using the formula: cpm (I)=cpm (no inhibitor)(1−([I]/([I]+IC50))). […] A percent inhibition value is expressed for a compound where it was impractical to calculate an IC50 value with available data.
# T1 sequence (P26663 2420-3010): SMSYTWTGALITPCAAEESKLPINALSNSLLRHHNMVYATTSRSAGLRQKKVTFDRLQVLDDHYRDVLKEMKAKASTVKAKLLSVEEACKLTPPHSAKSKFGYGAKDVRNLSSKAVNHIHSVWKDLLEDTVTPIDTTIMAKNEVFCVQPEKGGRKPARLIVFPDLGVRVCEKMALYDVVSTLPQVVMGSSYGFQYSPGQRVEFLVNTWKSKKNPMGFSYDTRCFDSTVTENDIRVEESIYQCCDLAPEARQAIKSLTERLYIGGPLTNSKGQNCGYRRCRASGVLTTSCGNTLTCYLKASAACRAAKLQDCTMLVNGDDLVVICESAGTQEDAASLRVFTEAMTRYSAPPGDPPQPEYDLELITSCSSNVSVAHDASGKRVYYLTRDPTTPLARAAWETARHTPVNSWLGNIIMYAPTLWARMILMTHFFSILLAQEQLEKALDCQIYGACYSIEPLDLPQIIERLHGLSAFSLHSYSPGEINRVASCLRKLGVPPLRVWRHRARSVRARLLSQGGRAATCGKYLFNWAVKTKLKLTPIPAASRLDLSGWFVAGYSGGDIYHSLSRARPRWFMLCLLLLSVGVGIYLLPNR
row,IC50 [nM],SMILES
1,60,"Cc1cc(C)n2nc(CC3=C(O)CC(CCc4ccc(S(C)(=O)=O)c(Cl)c4)(C4CCCC4)OC3=O)nc2n1 (stereo not drawn) [B(1), 6-{2-[3-Chloro-4-(methylsulfonyl)phenyl]ethyl}-6-cyclopentyl-3-[(5,7-dimethyl[1,2,4]triazolo[1,5-a]pyrimidin-2-yl)methyl]hydroxy-5,6-dihydro-2H-pyran-2-one]"
2,14,"CCc1cc(CCC2(C3CCCC3)CC(O)=C(Cc3nc4nc(C)cc(C)n4n3)C(=O)O2)ccn1 (single isomer, unassigned) [A(45), 6-Cyclopentyl-3-[(5,7-dimethyl[1,2,4]triazolo[1,5-a]pyrimidin-2-yl)methyl]-6-[2-(2-ethylpyridin-4-yl)ethyl]-4-hydroxy-5,6-dihydro-2H-pyran-2-one]"
3,22,"Cc1cc(C)n2nc(CC3=C(O)CC(CCc4ccc(C(C)(C)O)c(Cl)c4)(C4CCCC4)OC3=O)nc2n1 (stereo not drawn) [B(37), 6-{2-[3-Chloro-4-(1-hydroxy-1-methylethyl)phenyl]ethyl}-6-cyclopentyl-3[(5,7-dimethyl[1,2,4]triazolo[1,5-a]pyrimidin-2-yl)methyl]-4-hydroxy-5,6-dihydro-2H-pyran-2-one]"
4,7,"CCc1cc(CCC2(C3CCCC3)CC(O)=C(Cc3nc4nc(C)cc(C)n4n3)C(=O)O2)ccn1 (single isomer, unassigned) [A(44), 6-Cyclopentyl-3-[(5,7-dimethyl[1,2,4]triazolo[1,5-a]pyrimidin-2-yl)methyl]-6-[2-(2-ethylpyridin-4-yl)ethyl]-4-hydroxy-5,6-dihydro-2H-pyran-2-one]"
5,6,"CCc1cc(CCC2(C3CCCC3)CC(O)=C(Cc3nc4nc(C)cc(C)n4n3)C(=O)O2)ccc1C(=O)NC (stereo not drawn) [A(121), 4-(2-{2-cyclopentyl-5-[(5,7-dimethyl[1,2,4]triazolo[1,5-a]pyrimidin-2-yl)methyl]-4-hydroxy-6-oxo-3,6-dihydro-2H-pyran-2-yl}ethyl)-2-ethyl-N-methylbenzamide]"
6,4,"CCOC(=O)c1cnc2nc(CC3=C(O)CC(CCc4ccc(C(C)(C)C#N)c(Cl)c4)(C4CCCC4)OC3=O)nn2c1 (stereo not drawn) [B(13), Ethyl 2-[(6-{2-[3-chloro-4-(1-cyano-1-methylethyl)phenyl]ethyl}-6-cyclopentyl-4-hydroxy-2-oxo-5,6-dihydro-2H-pyran-3-yl)methyl][1,2,4]triazolo[1,5-a]pyrimidine-6-carboxylate]"
7,6,CCc1cc(CCC2(C3CCCC3)CC(O)=C(Cc3nc4nc(C)cc(C)n4n3)C(=O)O2)ccc1CNC(=O)OC(C)(C)C (stereo not drawn) [A(126)]
8,35,"CCc1cc(CCC2(C3CCCC3)CC(O)=C(Cc3nc4nc(C)cc(C)n4n3)C(=O)O2)ccc1CNC(C)=O (single isomer, unassigned; enantiomer 1) [A(132), Enantiomer 1 of N-[4-(2-[2-cyclopentyl-5-[(5,7-dimethyl[1,2,4]triazolo[1,5-a]pyrimidin-2-yl)methyl]-4-hydroxy-6-oxo-3,6-dihydro-2H-pyran-2-yl}ethyl)-2-ethylbenzyl]acetamide]"
9,4,"CCOc1cc(O)c(CC)cc1CCC1(C2CCCC2)CC(O)=C(Cc2nc3ncc(C)cn3n2)C(=O)O1 (stereo not drawn) [A(26), 6-Cyclopentyl-6-[2-(2-ethoxy-5-ethyl-4-hydroxyphenyl)ethyl]-4-hydroxy-3-[(6-methyl[1,2,4]triazolo[1,5-a]pyrimidin-2-yl)methyl]-5,6-dihydro-2H-pyran-2-one]"
10,38,Cc1cc(C)n2nc(CC3=C(O)CC(CCc4ccc([C@@H](C)NS(C)(=O)=O)cc4)(C4CCCC4)OC3=O)nc2n1 (stereo partly drawn) [A(83)]
11,55,"CCc1ccnc(CCC2(C3CCCC3)CC(O)=C(Cc3nc4ncc(C)cn4n3)C(=O)O2)c1 (stereo not drawn) [A(16), 6-Cyclopentyl-6-[2-(4-ethylpyridin-2-yl)ethyl]-4-hydroxy-3-[(6-methyl[1,2,4]triazolo[1,5-a]pyrimidin-2-yl)methyl]-5,6-dihydro-2H-pyran-2-one]"
12,110,Cc1cc(C)n2nc(CC3=C(O)CC(CCc4ccc(C(=O)O)c(Cl)c4)(C4CCCC4)OC3=O)nc2n1 (stereo not drawn) [B(12)]
